Measurements as given in US6702987B1, “Bioactive porous partition members” (Dade Behring Inc., priority 1994, dated 2004).

What was measured:
[1] = cited from earlier work
[2] = Storage stability of agent incorporated in porous partition member and dried; format: physicochemical
Procedure: ADP is unstable in aqueous solution having a useful life of only about 4 hours.
Epinephrine is sensitive to aspirin induced defects in platelets.
The concentration of ADP solution used for incorporation into the membrane was 50 mg/ml, and that of the epinephrine solution was 10 mg/ml.
A strip of membrane was spot-coated with 1 μL of ADP or epinephrine solution. Therefore, each membrane placed in the Test Cartridge contained 50 μg of ADP or 10 μg of epinephrine. The membrane was then spot-coated with 1 μL of fibrillar Type I collagen suspension from horse tendon available from Nycomed AG.
Spot-coating involved putting spots of liquid agent on a strip of membrane. After spot-coating, the membrane was placed in a forced air drying chamber for 25 minutes for drying of the ADP or epinephrine, and formation of a collagen film on the coated areas. Once dried, an aperture was punched in the center of the spot and a membrane disk was cut from the membrane strip.

stability when incorporated in a porous partition member and dried ([2]; incorporated in porous partition member and dried) | stable when incorporated in a porous partition member ([2]; incorporated in porous partition member, dried, stored at about 4° C. under hermetically sealed conditions) | Compound | stability in solution ([1]; in solution) | useful life in aqueous solution ([1]; aqueous solution)
good stability |  | CNC[C@H](O)c1ccc(O)c(O)c1 [epinephrine] | unstable | 
 | about one and one-half | Nc1ncnc2c1ncn2[C@@H]1O[C@H](COP(=O)(O)OP(=O)(O)O)[C@@H](O)[C@H]1O [ADP, adenosine 5′-diphosphate] |  | about 4 hours
